Measurements from ChEMBL document CHEMBL1201862, “PubChem BioAssay data set” (2004).
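All cell lines were grown in 96-well plates and treated with compound for 48 hours. Here, GI50 denotes the concentration required for 50% inhibition of growth.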 Activity calls are given as the source filed them. Rule as the data show it: active = GI50 up to about 1.1 µM and inactive = higher.

What was measured:
Experiment in all cases: inhibition of tumour cell growth, NCI panel, 48 h
LOX IMVI = test system: LOX IMVI
HOP-92 = test system: HOP-92
786-0 = test system: 786-0
HCT-116 = test system: HCT-116
ACHN = test system: ACHN
TK-10 = test system: TK-10
OVCAR-4 = test system: OVCAR-4
SK-MEL-5 = test system: SK-MEL-5
SK-MEL-28 = test system: SK-MEL-28
SF-539 = test system: SF-539
UO-31 = test system: UO-31
SNB-75 = test system: SNB-75
HCT-15 = test system: HCT-15
UACC-257 = test system: UACC-257
NCI-H522 = test system: NCI-H522
SR = test system: SR

Q: What does the source list for `COC(CN1C=C(Sc2ccccc2)CC1)OC`?
A: GI50 (LOX IMVI): 24.8 µM (inactive); GI50 (HOP-92): 26.9 µM (inactive); GI50 (786-0): 36.4 µM (inactive); GI50 (HCT-116): 29.5 µM (inactive); GI50 (ACHN): 34.6 µM (inactive); GI50 (TK-10): 32.7 µM (inactive); GI50 (OVCAR-4): 34 µM (inactive); GI50 (SK-MEL-5): 18.9 µM (inactive); GI50 (SK-MEL-28): 31 µM (inactive); GI50 (SF-539): 26.4 µM (inactive); GI50 (UO-31): 29.9 µM (inactive); GI50 (SNB-75): 19 µM (inactive); GI50 (HCT-15): 37.7 µM; GI50 (UACC-257): 34.8 µM (inactive)

Q: Which results are given for `CCc1cccc(C(C)C)c1NC(=O)C(=O)C1C(=O)NC(=O)NC1=O`?
A: GI50 (LOX IMVI): > 100 µM (inactive); GI50 (HOP-92): > 100 µM (inactive); GI50 (786-0): > 100 µM (inactive); GI50 (HCT-116): > 100 µM (inactive); GI50 (ACHN): > 100 µM (inactive); GI50 (TK-10): > 100 µM (inactive); GI50 (OVCAR-4): > 100 µM (inactive); GI50 (SK-MEL-5): > 100 µM (inactive); GI50 (SK-MEL-28): > 100 µM (inactive); GI50 (SF-539): > 100 µM (inactive); GI50 (UO-31): > 100 µM (inactive); GI50 (SNB-75): 69.5 µM (inactive); GI50 (HCT-15): > 100 µM; GI50 (NCI-H522): > 100 µM (inactive); GI50 (SR): > 100 µM (inactive); GI50 (UACC-257): > 100 µM (inactive)

Q: How did the GI50 (LOX IMVI) turn out when `CCOC(OC1=C(C#N)CCC1)C(C)[Se]c1ccccc1` (stereo not given) was run?
A: Its GI50 is 10 µM (inactive).

Q: What about the GI50 (HOP-92) of the same molecule?
A: Its GI50 is 24.4 µM (inactive).

Q: And the GI50 (786-0)?
A: The GI50 was 14.4 µM (inactive).

Q: What about the GI50 (HCT-116) of the same molecule?
A: The GI50 was 18.8 µM (inactive).

Q: What about the GI50 (ACHN) of the same molecule?
A: The GI50 was 32.1 µM (inactive).

Q: And the GI50 (TK-10)?
A: The GI50 was > 100 µM (inactive).

Q: And the GI50 (OVCAR-4)?
A: The GI50 was 14.9 µM (inactive).

Q: And the GI50 (SK-MEL-5)?
A: Its GI50 is 15.8 µM (inactive).

Q: What about the GI50 (SK-MEL-28) of the same molecule?
A: Its GI50 is 40.6 µM (inactive).

Q: What about the GI50 (SF-539) of the same molecule?
A: Its GI50 is 21.6 µM (inactive).

Q: What about the GI50 (UO-31) of the same molecule?
A: The GI50 was 26.5 µM (inactive).

Q: What about the GI50 (SNB-75) of the same molecule?
A: Its GI50 is 22.3 µM (inactive).

Q: And the GI50 (HCT-15)?
A: The GI50 was 15.9 µM.

Q: And the GI50 (NCI-H522)?
A: Its GI50 is 13.5 µM (inactive).

Q: And the GI50 (SR)?
A: Its GI50 is 11.6 µM (inactive).

Q: What about the GI50 (UACC-257) of the same molecule?
A: Its GI50 is 62.8 µM (inactive).

Q: How did the GI50 (LOX IMVI) turn out when `Cc1ccc(-n2c(=S)[nH]c3ccc(Br)cc3c2=O)cc1` was run?
A: The GI50 was > 100 µM (inactive).

Q: What about the GI50 (HOP-92) of the same molecule?
A: Its GI50 is > 100 µM (inactive).

Q: And the GI50 (786-0)?
A: Its GI50 is > 100 µM (inactive).

Q: And the GI50 (HCT-116)?
A: Its GI50 is > 100 µM (inactive).

Q: What about the GI50 (ACHN) of the same molecule?
A: Its GI50 is > 100 µM (inactive).

Q: What about the GI50 (TK-10) of the same molecule?
A: Its GI50 is > 100 µM (inactive).

Q: And the GI50 (OVCAR-4)?
A: Its GI50 is > 100 µM (inactive).

Q: What about the GI50 (SF-539) of the same molecule?
A: Its GI50 is > 100 µM (inactive).

Q: And the GI50 (UO-31)?
A: Its GI50 is > 100 µM (inactive).

Q: What about the GI50 (SNB-75) of the same molecule?
A: The GI50 was > 100 µM (inactive).

Q: What about the GI50 (HCT-15) of the same molecule?
A: Its GI50 is greater than 100 µM.

Q: And the GI50 (NCI-H522)?
A: Its GI50 is > 100 µM (inactive).

Q: What about the GI50 (SR) of the same molecule?
A: Its GI50 is > 100 µM (inactive).

Q: And the GI50 (UACC-257)?
A: Its GI50 is > 100 µM (inactive).

Q: For `CC1CC(=O)C(C(O)CC2CC(=O)N(c3ccccc3)C(=O)C2)C(C)C1` (stereo not given), which GI50 (LOX IMVI) is on record?
A: Its GI50 is > 100 µM (inactive).

Q: And the GI50 (HOP-92)?
A: Its GI50 is > 100 µM (inactive).

Q: And the GI50 (786-0)?
A: Its GI50 is > 100 µM (inactive).

Q: What about the GI50 (HCT-116) of the same molecule?
A: The GI50 was > 100 µM (inactive).

Q: And the GI50 (ACHN)?
A: Its GI50 is > 100 µM (inactive).

Q: What about the GI50 (TK-10) of the same molecule?
A: Its GI50 is > 100 µM (inactive).

Q: What about the GI50 (OVCAR-4) of the same molecule?
A: Its GI50 is > 100 µM (inactive).

Q: And the GI50 (SK-MEL-28)?
A: The GI50 was > 100 µM (inactive).

Q: And the GI50 (SF-539)?
A: Its GI50 is > 100 µM (inactive).

Q: And the GI50 (UO-31)?
A: The GI50 was > 100 µM (inactive).

Q: And the GI50 (SNB-75)?
A: Its GI50 is > 100 µM (inactive).

Q: And the GI50 (NCI-H522)?
A: Its GI50 is > 100 µM (inactive).

Q: And the GI50 (SR)?
A: The GI50 was > 100 µM (inactive).

Q: And the GI50 (UACC-257)?
A: The GI50 was > 100 µM (inactive).

Q: How did the GI50 (LOX IMVI) turn out when `c1ccc2c(c1)CCC/C2=N\OCC1CO1` (stereo not given) was run?
A: Its GI50 is 36.3 µM (inactive).

Q: What about the GI50 (HOP-92) of the same molecule?
A: The GI50 was 5.77 µM (inactive).

Q: And the GI50 (786-0)?
A: Its GI50 is > 100 µM (inactive).

Q: And the GI50 (HCT-116)?
A: The GI50 was 47.2 µM (inactive).

Q: And the GI50 (ACHN)?
A: Its GI50 is 68.4 µM (inactive).

Q: What about the GI50 (TK-10) of the same molecule?
A: The GI50 was > 100 µM (inactive).

Q: What about the GI50 (OVCAR-4) of the same molecule?
A: The GI50 was > 100 µM (inactive).

Q: And the GI50 (SK-MEL-5)?
A: Its GI50 is > 100 µM (inactive).

Q: What about the GI50 (SF-539) of the same molecule?
A: The GI50 was > 100 µM (inactive).

Q: What about the GI50 (UO-31) of the same molecule?
A: The GI50 was 38.6 µM (inactive).

Q: What about the GI50 (SNB-75) of the same molecule?
A: The GI50 was > 100 µM (inactive).

Q: What about the GI50 (HCT-15) of the same molecule?
A: Its GI50 is greater than 100 µM.

Q: What about the GI50 (UACC-257) of the same molecule?
A: Its GI50 is > 100 µM (inactive).

Q: Which GI50 (LOX IMVI) does the source give for `CCCCCCCCOCC(CO)OCCCCCCCC` (stereo not given) here?
A: The GI50 was 17.6 µM (inactive).

Q: And the GI50 (HOP-92)?
A: Its GI50 is 21.8 µM (inactive).

Q: And the GI50 (786-0)?
A: Its GI50 is 19.6 µM (inactive).

Q: And the GI50 (HCT-116)?
A: The GI50 was 19.4 µM (inactive).

Q: And the GI50 (ACHN)?
A: Its GI50 is 17.2 µM (inactive).

Q: What about the GI50 (TK-10) of the same molecule?
A: The GI50 was 19.2 µM (inactive).

Q: And the GI50 (OVCAR-4)?
A: Its GI50 is 19.2 µM (inactive).

Q: What about the GI50 (SK-MEL-5) of the same molecule?
A: Its GI50 is 17.9 µM (inactive).

Q: What about the GI50 (SK-MEL-28) of the same molecule?
A: The GI50 was 19.2 µM (inactive).

Q: What about the GI50 (UO-31) of the same molecule?
A: The GI50 was 20 µM (inactive).

Q: And the GI50 (HCT-15)?
A: Its GI50 is 15.9 µM.

Q: What about the GI50 (SR) of the same molecule?
A: Its GI50 is > 10 µM (inactive).

Q: And the GI50 (UACC-257)?
A: The GI50 was 21.3 µM (inactive).

Q: With `O=C(CSc1nc(-c2ccccc2)c(-c2ccccc2)[nH]1)NNC(=S)Nc1ccccc1` as the molecule, how does the GI50 (LOX IMVI) read?
A: Its GI50 is 71 µM (inactive).

Q: What about the GI50 (HOP-92) of the same molecule?
A: Its GI50 is 36.2 µM (inactive).

Q: And the GI50 (786-0)?
A: Its GI50 is > 100 µM (inactive).

Q: What about the GI50 (HCT-116) of the same molecule?
A: The GI50 was 97.1 µM (inactive).

Q: And the GI50 (ACHN)?
A: The GI50 was 85.1 µM (inactive).

Q: And the GI50 (TK-10)?
A: Its GI50 is 53.2 µM (inactive).

Q: What about the GI50 (OVCAR-4) of the same molecule?
A: The GI50 was 64 µM (inactive).

Q: And the GI50 (SK-MEL-5)?
A: The GI50 was 46.1 µM (inactive).

Q: What about the GI50 (SK-MEL-28) of the same molecule?
A: The GI50 was > 100 µM (inactive).

Q: And the GI50 (SF-539)?
A: Its GI50 is > 100 µM (inactive).

Q: And the GI50 (UO-31)?
A: Its GI50 is 71.9 µM (inactive).

Q: What about the GI50 (SNB-75) of the same molecule?
A: Its GI50 is > 100 µM (inactive).

Q: What about the GI50 (HCT-15) of the same molecule?
A: Its GI50 is greater than 100 µM.

Q: What about the GI50 (NCI-H522) of the same molecule?
A: Its GI50 is 19.2 µM (inactive).

Q: And the GI50 (SR)?
A: The GI50 was 57.5 µM (inactive).

Q: What about the GI50 (UACC-257) of the same molecule?
A: The GI50 was > 100 µM (inactive).

Q: With `COC(=O)C(Cc1cc(OC)c(OC)c(OC)c1)c1ccc(OC)cc1` (stereo not given) as the molecule, how does the GI50 (LOX IMVI) read?
A: Its GI50 is 79.3 µM (inactive).

Q: And the GI50 (HOP-92)?
A: The GI50 was 85.9 µM (inactive).

Q: And the GI50 (786-0)?
A: The GI50 was > 100 µM (inactive).

Q: What about the GI50 (HCT-116) of the same molecule?
A: Its GI50 is > 100 µM (inactive).

Q: And the GI50 (ACHN)?
A: Its GI50 is > 100 µM (inactive).

Q: What about the GI50 (TK-10) of the same molecule?
A: The GI50 was > 100 µM (inactive).

Q: And the GI50 (OVCAR-4)?
A: The GI50 was > 100 µM (inactive).

Q: What about the GI50 (SK-MEL-5) of the same molecule?
A: Its GI50 is 45 µM (inactive).

Q: What about the GI50 (SK-MEL-28) of the same molecule?
A: The GI50 was > 100 µM (inactive).

Q: And the GI50 (SF-539)?
A: The GI50 was > 100 µM (inactive).

Q: And the GI50 (UO-31)?
A: The GI50 was > 100 µM (inactive).

Q: What about the GI50 (HCT-15) of the same molecule?
A: The GI50 was greater than 100 µM.

Q: And the GI50 (NCI-H522)?
A: The GI50 was 90.4 µM (inactive).

Q: And the GI50 (UACC-257)?
A: The GI50 was > 100 µM (inactive).
